Assay results taken from ChEMBL document CHEMBL4373734, “Overcoming imatinib resistance in chronic myelogenous leukemia cells using non-cytotoxic cell death modulators” (Eur J Med Chem, 2020).
Active and inactive are the calls of the source. No cut-off for these calls is given here.

Key:
[1] = Solubility of compound in DMSO at 10 uM by microscopic analysis; format: physicochemical
K562 = assay: Cytotoxicity against human K562 cells assessed as cell death at 10 uM after 72 hrs by propidium iodide/Triton-X100 dye based FACS analysis; settings: k562, 72 h
K562-IMA[r] [2] = assay: Cytotoxicity against imatinib-resistant human K562-IMA[r] cells assessed as cell death at 10 uM after 72 hrs by propidium iodide/Triton-X100 dye based FACS analysis
[3] = Cytotoxicity against human HS5 cells assessed as cell death at 10 uM after 72 hrs by propidium iodide/Triton-X100 dye based FACS analysis
COS-7 = assay: Cytotoxicity against African green monkey COS7 cells assessed as effect on cell metabolic activity at 20 uM after 72 hrs by MTT assay; format: ADME, cell-based; settings: chlorocebus aethiops, cos-7, 72 h
K562-IMA[r] [4] = assay: Induction of sensitization to imatinib-induced cytotoxicity in imatinib-resistant human K562-IMA[r] cells assessed as induction of cell death at 10 uM after 72 hrs in presence of 1 uM imatinib by propidium iodide/Triton-X100 dye based FACS analysis; format: functional
[5] = target: T1, Peroxisome proliferator-activated receptor gamma (Homo sapiens) (UniProt P37231); assay: Transactivation of Gal4-fused human PPARgamma transfected in COS7 cells co-transfected with pGAL5-TK-pGL3 and pRennilla-CMV assessed as maximum intrinsic activation at 10 uM incubated for 39 hrs by dual luciferase reporter assay relative to pioglitazone; format: cell-based
T1 sequence (whole entry): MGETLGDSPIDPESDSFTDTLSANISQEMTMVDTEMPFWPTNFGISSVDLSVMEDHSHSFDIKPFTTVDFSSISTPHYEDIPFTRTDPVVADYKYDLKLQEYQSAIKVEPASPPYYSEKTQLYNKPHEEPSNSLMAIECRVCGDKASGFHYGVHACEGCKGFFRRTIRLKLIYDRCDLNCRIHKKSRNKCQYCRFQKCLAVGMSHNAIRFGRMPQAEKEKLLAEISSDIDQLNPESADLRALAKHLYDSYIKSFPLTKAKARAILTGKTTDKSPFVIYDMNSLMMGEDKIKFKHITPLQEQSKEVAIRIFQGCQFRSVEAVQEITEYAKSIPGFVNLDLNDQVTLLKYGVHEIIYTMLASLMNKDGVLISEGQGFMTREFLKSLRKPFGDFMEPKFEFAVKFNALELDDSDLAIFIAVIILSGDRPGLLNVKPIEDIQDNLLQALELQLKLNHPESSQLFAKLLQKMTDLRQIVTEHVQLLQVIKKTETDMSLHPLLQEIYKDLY

[6] = Solubility of compound in water at >20 uM; format: physicochemical; settings: buffer
[7] = target: T1, Peroxisome proliferator-activated receptor gamma (Homo sapiens); assay: Transactivation of Gal4-fused human PPARgamma transfected in COS7 cells co-transfected with pGAL5-TK-pGL3 and pRennilla-CMV assessed as maximum intrinsic activation at 20 uM incubated for 39 hrs by dual luciferase reporter assay; format: cell-based
[8] = target: T2, Peroxisome proliferator-activated receptor gamma (Homo sapiens, UniProt P37231); assay: Transactivation of Gal4-fused human PPARgamma transfected in COS7 cells co-transfected with pGAL5-TK-pGL3 and pRennilla-CMV incubated for 39 hrs by dual luciferase reporter assay; format: cell-based
T2 sequence (P37231 whole entry): T1 sequence (whole entry)

K562-IMA[r] [9] = assay: Induction of sensitization to imatinib-induced cytotoxicity in imatinib-resistant human K562-IMA[r] cells assessed as induction of cell death measured after 72 hrs in presence of 1 uM imatinib by propidium iodide/Triton-X100 dye based FACS analysis; format: functional
K562-IMA[r] [10] = assay: Cytotoxicity against imatinib-resistant human K562-IMA[r] cells assessed as induction of cell death at 10 uM after 72 hrs by propidium iodide/Triton-X100 dye based FACS analysis relative to control
K562-IMA[r] [11] = assay: Induction of sensitization to imatinib induced cytotoxicity in imatinib-resistant human K562-IMA[r] cells assessed as cell death up to 2.5 uM measured after 72 hrs in presence of 1 uM imatinib by propidium iodide/Triton-X100 dye based FACS analysis; format: functional
K562-IMA[r] [12] = assay: Induction of sensitization to imatinib-induced cytotoxicity in imatinib-resistant human K562-IMA[r] cells assessed as induction of cell death at 10 uM after 72 hrs in presence of 1 uM imatinib by propidium iodide/Triton-X100 dye based FACS analysis (reference value: 15%); format: functional
K562-IMA[r] [13] = assay: Induction of sensitization to imatinib-induced cytotoxicity in imatinib-resistant human K562-IMA[r] cells assessed as gain in cell death rate at 5 uM measured after 72 hrs in presence of 1 uM imatinib by propidium iodide/Triton-X100 dye based FACS analysis relative to imatinib-treated control; format: functional
[14] = target: T1, Peroxisome proliferator-activated receptor gamma (Homo sapiens); assay: Transactivation of Gal4-fused human PPARgamma transfected in COS7 cells co-transfected with pGAL5-TK-pGL3 and pRennilla-CMV at 20 uM incubated for 39 hrs by dual luciferase reporter assay; format: cell-based

Compound | solubility [1] | Activity (K562) | Activity (K562-IMA[r] [2]) | Activity [3] | Activity (COS-7) | Activity (K562-IMA[r] [4]) | Intrinsic activity [5] [%] | solubility [6] | Intrinsic activity [7] | EC50 [8] [µM] | Activity (K562-IMA[r] [9]) | Activity (K562-IMA[r] [10]) [%] | Activity (K562-IMA[r] [11]) | Activity (K562-IMA[r] [12]) | Activity (K562-IMA[r] [13]) [%] | Activity [14]
CCCc1nc2c([N+](=O)[O-])cccc2n1Cc1ccc(-c2ccccc2C(=O)O)cc1 | Soluble | Non-Toxic | Non-Toxic | Non-Toxic | Non-Toxic | Active | 0.42 | – | – | – | – | – | – | – | – | –
CCCc1nc2c(O)cccc2n1Cc1ccc(-c2ccccc2C(N)=O)cc1 | Soluble | Non-Toxic | Non-Toxic | Non-Toxic | Non-Toxic | Active | 20.5 | Insoluble | inactive | – | – | – | – | – | – | –
CCCc1nc2c(N)cccc2n1Cc1ccc(-c2ccccc2C(=O)O)cc1 | Soluble | Non-Toxic | Non-Toxic | Non-Toxic | Non-Toxic | Active | 15.7 | – | – | – | – | – | – | – | – | –
CCCc1nc2c(OC)cccc2n1Cc1ccc(-c2ccccc2C(N)=O)cc1 | Soluble | Non-Toxic | Non-Toxic | Non-Toxic | Non-Toxic | Active | 13.3 | Insoluble | inactive | – | – | – | – | – | – | –
CCCc1nc2c(C(F)(F)F)cccc2n1Cc1ccc(-c2ccccc2C(=O)O)cc1 | Soluble | Non-Toxic | Non-Toxic | Non-Toxic | Non-Toxic | Active | 29.5 | – | – | 12.1 | – | – | – | – | – | –
CCCc1nc2c(OC)cccc2n1Cc1ccc(-c2ccccc2C(=O)O)cc1 | Soluble | Non-Toxic | Non-Toxic | Non-Toxic | Non-Toxic | Active | 17.9 | – | – | – | – | – | – | – | – | –
CCCc1nc2c([N+](=O)[O-])cccc2n1Cc1ccc(-c2ccccc2C(N)=O)cc1 | Soluble | Non-Toxic | Non-Toxic | Non-Toxic | Non-Toxic | Active | 7.15 | Insoluble | inactive | – | – | – | – | – | – | –
CCCc1nc2c(C)cccc2n1Cc1ccc(-c2ccccc2C(=O)O)cc1 | Soluble | Non-Toxic | Non-Toxic | Non-Toxic | Non-Toxic | Active | 54.3 | – | – | 11.1 | – | – | – | – | – | –
CCCc1nc2c(C)cccc2n1Cc1ccc(-c2ccccc2C(N)=O)cc1 | Soluble | Non-Toxic | – | Non-Toxic | Non-Toxic | – | 19.6 | Insoluble | inactive | – | Dose-dependent effect | < 20 | inactive | 62 - 78% | 11.2 | –
CCCc1nc2c(C(F)(F)F)cccc2n1Cc1ccc(-c2ccccc2C(N)=O)cc1 | Soluble | Non-Toxic | – | Non-Toxic | Non-Toxic | – | 19.5 | Insoluble | inactive | – | Dose-dependent effect | < 20 | inactive | 62 - 78% | 7.1 | –
CCCc1nc2c(N)cccc2n1Cc1ccc(-c2ccccc2C(N)=O)cc1 | Soluble | Non-Toxic | Non-Toxic | Non-Toxic | Non-Toxic | Active | 25.1 | Insoluble | inactive | – | – | – | – | – | – | –
CCCc1nc2c(O)cccc2n1Cc1ccc(-c2ccccc2C(=O)O)cc1 | Soluble | Non-Toxic | Non-Toxic | Non-Toxic | Non-Toxic | Active | 14.4 | – | – | – | – | – | – | – | – | –
CCCc1nc2c(C)cc(-c3nc4ccccc4n3C)cc2n1Cc1ccc(-c2ccccc2C(=O)O)cc1 [TELMISARTAN] | – | – | – | – | – | Active | 59.1 | – | 78% | 4.28 | – | – | – | – | – | –
CCCc1nc2c(Cl)cccc2n1Cc1ccc(-c2ccccc2C(=O)O)cc1 | Soluble | Non-Toxic | Non-Toxic | Non-Toxic | Non-Toxic | Active | 44 | – | – | 8.67 | – | – | – | – | – | Active
CCCc1nc2c(Br)cccc2n1Cc1ccc(-c2ccccc2C(=O)O)cc1 | Soluble | Non-Toxic | Non-Toxic | Non-Toxic | Non-Toxic | Active | 44.9 | – | – | 8.25 | – | – | – | – | – | Active
CCCc1nc2c(F)cccc2n1Cc1ccc(-c2ccccc2C(N)=O)cc1 | Soluble | Non-Toxic | – | Non-Toxic | Non-Toxic | – | 33.3 | Insoluble | inactive | – | Dose-dependent effect | < 20 | inactive | 62 - 78% | 8.1 | –
CCCc1nc2c(Cl)cccc2n1Cc1ccc(-c2ccccc2C(N)=O)cc1 | Soluble | Non-Toxic | – | Non-Toxic | Non-Toxic | – | 21.1 | Insoluble | inactive | – | Dose-dependent effect | < 20 | inactive | 62 - 78% | 15.3 | –
CCCc1nc2c(F)cccc2n1Cc1ccc(-c2ccccc2C(=O)O)cc1 | Soluble | Non-Toxic | Non-Toxic | Non-Toxic | Non-Toxic | Active | 44.2 | – | – | 8.66 | – | – | – | – | – | Active
CCCc1nc2ccccc2n1Cc1ccc(-c2ccccc2C(=O)O)cc1 | Soluble | Non-Toxic | Non-Toxic | Non-Toxic | Non-Toxic | Active | 58.5 | – | – | 7.22 | – | – | – | – | – | Active
